These are literature values, as cited in patent US8383697B2 (priority 2009, dated 2013).

One series relates to rats. The settings on record: in vivo.
The conditions of series [1]: in vivo.

With `O=C(OOC(=O)c1ccccc1)c1ccccc1` [Initiator VII, benzoyl peroxide], in the series on rats, the “Rat Oral LD50” value is reported as 7,710 mg/kg.

For `CCCCCCCCCCCC(=O)OOC(=O)CCCCCCCCCCC` [Initiator VIII, lauroyl peroxide], the “Rat Oral LD50” value in the series with rats was 10,000 mg/kg.

Consider `CC(C)(C)OOC(C)(C)C` [Initiator X, tert-butyl peroxide], for which the “Rat Oral LD50” value in the series with rats is on record as 25,000 mg/kg.

With `CC(C)(C)OOC(=O)c1ccccc1` [Initiator XI, tert-butyl peroxybenzoate], in the series with rats, the “Rat Oral LD50” value is recorded as 4,160 mg/kg.

Turning to `CCO` [ethanol], in series [1], the 50% lethal dose (LD50) (usually the dose at which mortality reaches 50%) is reported as 7060 mg/kg.
